This assay relates to 186277-243-T-J2-PDC complex spheroid viability. The assay is described as follows: Anticancer human tumor 186277-243-T-J2-PDC patient-derived colon adenocarcinoma cell line growth inhibition. As to conditions: for viability, T/C: stronger effect = lower value. In short, it runs like this: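 Multicellular complex spheroids of tumor cells with human endothelial cells (HUVEC) and mesenchymal stem cells; the LSD1 inhibitor iadademstat was combined with standard-of-care or investigational agents. Top concentration at or near clinical Cmax, half-log dilutions; final DMSO ≤0.25%.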

[1] abbreviates: curve of first compound, second compound 0.1 µM.
[2] abbreviates: curve of first compound, second compound 0.316 µM.
Where [3] appears, read: curve of first compound, second compound 1 µM.
[4] abbreviates: curve of first compound, second compound 3.16 µM.
Setting [5] is: curve of first compound, second compound 10 µM.
The mark [6] stands for this setting: second compound 0.1 µM, first compound 0.0316 µM.
Setting [7] is: second compound 0.1 µM, first compound 0.1 µM.
Where [8] appears, read: second compound 0.316 µM, first compound 0.0316 µM.
Where [9] appears, read: second compound 0.316 µM, first compound 0.1 µM.
Where [10] appears, read: second compound 1 µM, first compound 0.0316 µM.
[11] abbreviates: second compound 1 µM, first compound 0.1 µM.
Where [12] appears, read: second compound 3.16 µM, first compound 0.0316 µM.
The mark [13] stands for this setting: second compound 3.16 µM, first compound 0.1 µM.
Where [14] appears, read: second compound 10 µM, first compound 0.0316 µM.
Where [15] appears, read: second compound 10 µM, first compound 0.1 µM.

We go through five compounds from PubChem BioAssay AID1918933 (Molecular Pharmacology Branch, DTP, NCI, 2023).

“And” between values parts separate entries of the source, which are not always exact repeats. Identical values can stand only once.
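Also: 7 day exposure to compounds.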
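For viability, T/C in this document: 100% = DMSO vehicle control viability.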

As for `NS(=O)(=O)OCC1CC(n2ccc3c(NC4CCc5ccccc54)ncnc32)CC1O` (centres undefined), the viability, T/C (compound 0.00949 µM) was 93.9% and 100%; the viability, T/C (compound 0.03 µM) is 94.9% and 85.9%; the viability, T/C (compound 0.0949 µM) is 62.6% and 66.7%; the viability, T/C (compound 0.3 µM) was 37.2% and 33%; the viability, T/C (compound 0.949 µM) is 20.5% and 9.16%; the viability, T/C (compound 3 µM) was 7.98% and 4.41%. Besides, the half-inhibitory concentration (IC50) (curve of compound) is 180 nM and 162 nM.
`Nc1ccn(C2OC(CO)C(O)C2(F)F)c(=O)n1` (centres undefined): the viability, T/C was 17.2% and 101% (compound 0.000949 µM); 16.7% and 32.3% (compound 0.003 µM); 16.5% and 13% (compound 0.00949 µM); 16.5% and 11.9% (compound 0.03 µM); 17.1% and 12.7% (compound 0.0949 µM); 14.7% and 14% (compound 0.3 µM). In addition, where the note is “curve of compound”, the IC50 is < 0.949 nM and 2.23 nM.
Regarding `Cn1ncnc1C1c2n[nH]c(=O)c3cc(F)cc(c23)NC1c1ccc(F)cc1` (centres undefined) + NC1CC1c1ccc(-c2cccc(O)c2)cc1, the IC50 is, setting by setting: under setting [1], over 100 nM; under setting [2], over 100 nM; under setting [3], over 100 nM; under setting [4], over 100 nM; under setting [5], over 100 nM. In addition, the viability, T/C by setting is: (second compound 0.1 µM, first compound 0.000316 µM) 110%; (second compound 0.1 µM, first compound 0.001 µM) 109%; (second compound 0.1 µM, first compound 0.00316 µM) 112%; (second compound 0.1 µM, first compound 0.01 µM) 110%; under setting [6], 106%; under setting [7], 115%. Moreover, the viability, T/C runs as follows: (second compound 0.316 µM, first compound 0.000316 µM) 113%; (second compound 0.316 µM, first compound 0.001 µM) 110%; (second compound 0.316 µM, first compound 0.00316 µM) 93.8%; (second compound 0.316 µM, first compound 0.01 µM) 97.7%; under setting [8], 100%; under setting [9], 106%. Further, the viability, T/C runs as follows: (second compound 1 µM, first compound 0.000316 µM) 113%; (second compound 1 µM, first compound 0.001 µM) 114%; (second compound 1 µM, first compound 0.00316 µM) 120%; (second compound 1 µM, first compound 0.01 µM) 104%; under setting [10], 108%; under setting [11], 110%. Further, the viability, T/C runs as follows: (second compound 3.16 µM, first compound 0.000316 µM) 110%; (second compound 3.16 µM, first compound 0.001 µM) 115%; (second compound 3.16 µM, first compound 0.00316 µM) 112%; (second compound 3.16 µM, first compound 0.01 µM) 107%; under setting [12], 113%; under setting [13], 110%. The viability, T/C (second compound 10 µM, first compound 0.000316 µM) was 110%; the viability, T/C (second compound 10 µM, first compound 0.001 µM) was 106%; the viability, T/C (second compound 10 µM, first compound 0.00316 µM) is 127%; the viability, T/C (second compound 10 µM, first compound 0.01 µM) was 109%; the viability, T/C under setting [14] is 104%; the viability, T/C under setting [15] is 100%.
With `CC1COCCN1c1cc(C2(S(C)(=N)=O)CC2)nc(-c2ccnc3[nH]ccc23)n1` (centres undefined) + NC1CCC(NC2CC2c2ccccc2)CC1, the IC50 runs as follows: under setting [1], 438 nM; under setting [2], 457 nM; under setting [3], 440 nM; under setting [4], 517 nM; under setting [5], 533 nM. Also, the viability, T/C under setting [6] was 123%; the viability, T/C under setting [7] was 108%; the viability, T/C (second compound 0.1 µM, first compound 0.316 µM) was 63%; the viability, T/C (second compound 0.1 µM, first compound 1 µM) is 17.9%; the viability, T/C (second compound 0.1 µM, first compound 3.16 µM) was 10.8%; the viability, T/C (second compound 0.1 µM, first compound 10 µM) is 6.11%. Besides, the viability, T/C is 117% under setting [8]; 115% under setting [9]; 65.1% (second compound 0.316 µM, first compound 0.316 µM); 17.7% (second compound 0.316 µM, first compound 1 µM); 11% (second compound 0.316 µM, first compound 3.16 µM); 7.27% (second compound 0.316 µM, first compound 10 µM). In addition, the viability, T/C is 118% under setting [10]; 112% under setting [11]; 62.8% (second compound 1 µM, first compound 0.316 µM); 17.5% (second compound 1 µM, first compound 1 µM); 11.1% (second compound 1 µM, first compound 3.16 µM); 6.95% (second compound 1 µM, first compound 10 µM). The viability, T/C is 122% under setting [12]; 123% under setting [13]; 71.3% (second compound 3.16 µM, first compound 0.316 µM); 21.8% (second compound 3.16 µM, first compound 1 µM); 11.5% (second compound 3.16 µM, first compound 3.16 µM); 7.92% (second compound 3.16 µM, first compound 10 µM). For the same compound, the viability, T/C runs as follows: under setting [14], 115%; under setting [15], 123%; (second compound 10 µM, first compound 0.316 µM) 71%; (second compound 10 µM, first compound 1 µM) 26.1%; (second compound 10 µM, first compound 3.16 µM) 16.7%; (second compound 10 µM, first compound 10 µM) 9.23%.
For `CCc1c2c(nc3ccc(O)cc13)-c1cc3c(c(=O)n1C2)COC(=O)[C@]3(O)CC` + NC1CC1c1ccc(-c2cccc(O)c2)cc1, the half-maximal inhibitory concentration (IC50) reads like this: under setting [1], under 0.949 nM; under setting [2], under 0.949 nM; under setting [3], under 0.949 nM; under setting [4], under 0.949 nM; under setting [5], under 0.949 nM. Also, the viability, T/C (second compound 0.1 µM, first compound 0.000949 µM) was 41.8%; the viability, T/C (second compound 0.1 µM, first compound 0.003 µM) is 30.3%; the viability, T/C (second compound 0.1 µM, first compound 0.00949 µM) was 21.5%; the viability, T/C (second compound 0.1 µM, first compound 0.03 µM) was 3.91%; the viability, T/C (second compound 0.1 µM, first compound 0.0949 µM) is 1.18%; the viability, T/C (second compound 0.1 µM, first compound 0.3 µM) was 0.24%. Also, the viability, T/C (second compound 0.316 µM, first compound 0.000949 µM) is 43.1%; the viability, T/C (second compound 0.316 µM, first compound 0.003 µM) is 29.9%; the viability, T/C (second compound 0.316 µM, first compound 0.00949 µM) was 22.4%; the viability, T/C (second compound 0.316 µM, first compound 0.03 µM) is 3.45%; the viability, T/C (second compound 0.316 µM, first compound 0.0949 µM) was 0.15%; the viability, T/C (second compound 0.316 µM, first compound 0.3 µM) was 0.17%. Further, the viability, T/C is 42.2% (second compound 1 µM, first compound 0.000949 µM); 28.3% (second compound 1 µM, first compound 0.003 µM); 24.3% (second compound 1 µM, first compound 0.00949 µM); 3.43% (second compound 1 µM, first compound 0.03 µM); 0.22% (second compound 1 µM, first compound 0.0949 µM); 0.17% (second compound 1 µM, first compound 0.3 µM). The viability, T/C is, setting by setting: (second compound 3.16 µM, first compound 0.000949 µM) 42.7%; (second compound 3.16 µM, first compound 0.003 µM) 29%; (second compound 3.16 µM, first compound 0.00949 µM) 24%; (second compound 3.16 µM, first compound 0.03 µM) 3.34%; (second compound 3.16 µM, first compound 0.0949 µM) 0.22%; (second compound 3.16 µM, first compound 0.3 µM) 0.16%. Further, the viability, T/C is 35.4% (second compound 10 µM, first compound 0.000949 µM); 23.4% (second compound 10 µM, first compound 0.003 µM); 17.3% (second compound 10 µM, first compound 0.00949 µM); 1.73% (second compound 10 µM, first compound 0.03 µM); 0.19% (second compound 10 µM, first compound 0.0949 µM); 0.23% (second compound 10 µM, first compound 0.3 µM).
